Paper PMC7910608, “Tuning flavin environment to detect and control light-induced conformational switching in Drosophila cryptochrome” (Communications Biology, 2021)

What was measured:
Format in all cases: binding
dCRY; dCRY(WT)-SORTC-SL [1] = molecular target: T1, dCRY; dCRY(WT)-SORTC-SL (Drosophila melanogaster, UniProt O77059, H378N/L405E/C416N); assay: cw-ESR, UV-vis and 4P-DEER of bound flavin after blue light; settings: pH 8; neutral semiquinone formed in light
T1 construct: gene cry; full length, N-terminal twin-Strep tag, C-terminal sort-tag (LPGTG) ligated to GGGGC-nitroxide (LPGTGGGGC); E. coli CmpX13

dCRY; dCRY(WT)-SORTC-SL [2] = molecular target: T2, dCRY; dCRY(WT)-SORTC-SL (Drosophila melanogaster, UniProt O77059, H378N); assay: as above; settings: pH 8; anionic semiquinone formed in light
T2 construct: gene cry; full length, N-terminal twin-Strep tag, C-terminal sort-tag (LPGTG) ligated to GGGGC-nitroxide (LPGTGGGGC); E. coli CmpX13

dCRY; dCRY(WT)-SORTC-SL [3] = molecular target: T3, dCRY; dCRY(WT)-SORTC-SL (Drosophila melanogaster, UniProt O77059, H378K/L405E/C416N); assay: as above; settings: pH 8; neutral semiquinone formed in light
T3 construct: gene cry; full length, N-terminal twin-Strep tag, C-terminal sort-tag (LPGTG) ligated to GGGGC-nitroxide (LPGTGGGGC); E. coli CmpX13

dCRY; dCRY(WT)-SORTC-SL [4] = molecular target: T4, dCRY; dCRY(WT)-SORTC-SL (Drosophila melanogaster, UniProt O77059, H378R/L405E/C416N); assay: as above; settings: pH 8; neutral semiquinone formed in light
T4 construct: gene cry; full length, N-terminal twin-Strep tag, C-terminal sort-tag (LPGTG) ligated to GGGGC-nitroxide (LPGTGGGGC); E. coli CmpX13

dCRY; dCRY(WT)-SORTC-SL [5] = molecular target: T5, dCRY; dCRY(WT)-SORTC-SL (Drosophila melanogaster, UniProt O77059); assay: X-ray crystal structure, […] A; also UV-vis and ENDOR; settings: dark state; crystals at pH 9; magnesium
T5 construct: gene cry; full length, N-terminal twin-Strep tag, C-terminal sort-tag (LPGTG) ligated to GGGGC-nitroxide (LPGTGGGGC); E. coli CmpX13

dCRY; dCRY(WT)-SORTC-SL [6] = molecular target: T6, dCRY; dCRY(WT)-SORTC-SL (Drosophila melanogaster, UniProt O77059, L405E/C416N); assay: UV-vis, ENDOR and cw-ESR of bound flavin, blue-light photoreduction; settings: pH 8; neutral semiquinone formed in light
T6 construct: gene cry; full length, N-terminal twin-Strep tag, C-terminal sort-tag (LPGTG) ligated to GGGGC-nitroxide (LPGTGGGGC); E. coli CmpX13

dCRY; dCRY(WT)-SORTC-SL [7] = molecular target: T7, dCRY; dCRY(WT)-SORTC-SL (Drosophila melanogaster, UniProt O77059, H378R); assay: cw-ESR, UV-vis and 4P-DEER of bound flavin after blue light; settings: pH 8; anionic semiquinone formed in light
T7 construct: gene cry; full length, N-terminal twin-Strep tag, C-terminal sort-tag (LPGTG) ligated to GGGGC-nitroxide (LPGTGGGGC); E. coli CmpX13

dCRY; dCRY(WT)-SORTC-SL [8] = molecular target: T8, dCRY; dCRY(WT)-SORTC-SL (Drosophila melanogaster, UniProt O77059, H378K); assay: as above; settings: pH 8; anionic semiquinone formed in light
T8 construct: gene cry; full length, N-terminal twin-Strep tag, C-terminal sort-tag (LPGTG) ligated to GGGGC-nitroxide (LPGTGGGGC); E. coli CmpX13
T8 sequence (O77059 1-539 H378K): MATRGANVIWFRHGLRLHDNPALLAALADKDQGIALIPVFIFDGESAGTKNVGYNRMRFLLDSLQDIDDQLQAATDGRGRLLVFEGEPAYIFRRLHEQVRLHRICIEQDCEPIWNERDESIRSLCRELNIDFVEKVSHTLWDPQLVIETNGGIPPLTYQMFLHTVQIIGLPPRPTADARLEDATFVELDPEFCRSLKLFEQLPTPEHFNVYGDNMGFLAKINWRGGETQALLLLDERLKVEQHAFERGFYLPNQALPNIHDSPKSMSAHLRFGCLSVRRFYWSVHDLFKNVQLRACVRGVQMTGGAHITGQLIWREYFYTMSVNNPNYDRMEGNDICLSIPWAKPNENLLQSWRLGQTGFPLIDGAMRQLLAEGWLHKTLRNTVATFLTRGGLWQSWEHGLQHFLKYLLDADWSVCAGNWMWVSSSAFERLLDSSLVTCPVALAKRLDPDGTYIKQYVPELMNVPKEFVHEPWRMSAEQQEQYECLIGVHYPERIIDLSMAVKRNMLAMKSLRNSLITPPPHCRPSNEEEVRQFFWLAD

T6 sequence (O77059 1-539 L405E/C416N): as the sequence (O77059 1-539 H378K) above, with K378H, L405E, C416N counted along it
T4 sequence (O77059 1-539 H378R/L405E/C416N): as the sequence (O77059 1-539 H378K) above, with K378R, L405E, C416N counted along it
T1 sequence (O77059 1-539 H378N/L405E/C416N): as the sequence (O77059 1-539 H378K) above, with K378N, L405E, C416N counted along it
T5 sequence (O77059 1-539): as the sequence (O77059 1-539 H378K) above, with K378H counted along it
T2 sequence (O77059 1-539 H378N): as the sequence (O77059 1-539 H378K) above, with K378N counted along it
T7 sequence (O77059 1-539 H378R): as the sequence (O77059 1-539 H378K) above, with K378R counted along it
T3 sequence (O77059 1-539 H378K/L405E/C416N): as the sequence (O77059 1-539 H378K) above, with L405E, C416N counted along it

Cc1cc2nc3c(=O)[nH]c(=O)nc-3n(C[C@H](O)[C@H](O)[C@H](O)COP(=O)(O)OP(=O)(O)OC[C@H]3O[C@@H](n4cnc5c(N)ncnc54)[C@H](O)[C@@H]3O)c2cc1C [FAD]
cw-ESR, UV-vis and 4P-DEER of bound flavin after blue light (dCRY; dCRY(WT)-SORTC-SL [1]): triple substitutions (H378K/N/R, L405E, and C416N) led to NSQ formation
cw-ESR, UV-vis and 4P-DEER of bound flavin after blue light (dCRY; dCRY(WT)-SORTC-SL [2]): H378 substitutions (H378K/N/R) led to ASQ formation
cw-ESR, UV-vis and 4P-DEER of bound flavin after blue light (dCRY; dCRY(WT)-SORTC-SL [3]): triple substitutions (H378K/N/R, L405E, and C416N) led to NSQ formation
cw-ESR, UV-vis and 4P-DEER of bound flavin after blue light (dCRY; dCRY(WT)-SORTC-SL [4]): triple substitutions (H378K/N/R, L405E, and C416N) led to NSQ formation
X-ray crystal structure, 2.58 A; also UV-vis and ENDOR (dCRY; dCRY(WT)-SORTC-SL [5]): The crystal structure of dCRY-WT-SORTC-SL in the dark state shows that the active site FAD
UV-vis, ENDOR and cw-ESR of bound flavin, blue-light photoreduction (dCRY; dCRY(WT)-SORTC-SL [6]): Both WT dCRY and L405E/C416N show characteristic absorption bands of oxidized FAD in the dark
cw-ESR, UV-vis and 4P-DEER of bound flavin after blue light (dCRY; dCRY(WT)-SORTC-SL [7]): H378 substitutions (H378K/N/R) led to ASQ formation
cw-ESR, UV-vis and 4P-DEER of bound flavin after blue light (dCRY; dCRY(WT)-SORTC-SL [8]): H378 substitutions (H378K/N/R) led to ASQ formation
